Experiment: maxima of UV-A and UV-B absorption of quinoxaline derivatives in 2-propanol
Format: physicochemical
Conditions: 1 mg of substance per 100 ml of solvent; for UV-A (400 320 nm) Max. abs.: absorbance at UV-A maximum; for UV-A (400 320 nm) λ[nm]: wavelength of UV-A maximum; for UV-B (280 320 nm) Max. abs.: absorbance at UV-B maximum; for UV-B (280 320 nm) λ[nm]: wavelength of UV-B maximum
Description: The measurement was carried out in 2-propanol at a concentration of 1 mg of substance per 100 ml of solvent.

UV-A (400 320 nm) Max. abs. | UV-A (400 320 nm) λ[nm] | Structure (SMILES) | UV-B (280 320 nm) Max. abs. | UV-B (280 320 nm) λ[nm]
0.3685 | 358.0 nm | O=C(O)c1ccc(-n2c(-c3ccccc3)cc3nc4ccccc4nc32)cc1 |  | 
0.4067 | 359.0 nm | CC(=O)c1ccc(-n2c(-c3ccccc3)cc3nc4ccccc4nc32)cc1 |  | 
0.5824 | 327.5 nm | Cc1nc2nc3ccccc3nc2[nH]1 |  | 
0.5381 | 338.0 nm | c1ccc2nc3[nH]ccc3nc2c1 |  | 
0.5227 | 328.0 nm | c1ccc2nc3[nH]cnc3nc2c1 |  | 

More lines, now with the values behind:

Structure (SMILES) | UV-A (400 320 nm) Max. abs. | UV-A (400 320 nm) λ[nm] | UV-B (280 320 nm) Max. abs. | UV-B (280 320 nm) λ[nm]
FC(F)(F)c1nc2nc3ccccc3nc2[nH]1 | 0.4875 | 327.5 nm |  | 
FC(F)(F)c1cc(-c2nc3nc4ccccc4nc3[nH]2)cc(C(F)(F)F)c1 | 0.7037 | 358.0 nm |  | 
CC(C)(C)c1nc2nc3ccccc3nc2[nH]1 | 0.6290 | 330.0 nm |  | 
CC(=O)c1ccc(-n2c([SiH2]C(C)C)cc3nc4ccccc4nc32)cc1 | 0.5774 | 403.0 nm | 0.4246 | 318.0 nm
c1ccc(-c2cc3nc4ccccc4nc3[nH]2)cc1 | 0.7158 | 367.0 nm | 0.8710 | 268.0 nm

From patent US7101537B2, “Tricyclic quinoxaline and quinoline derivatives as a UV filter” (Merck Patentgesellschaft, priority 2001, dated 2006)
